Data: ChEMBL document CHEMBL1649565, “Besifloxacin, a novel fluoroquinolone, has broad-spectrum in vitro activity against aerobic and anaerobic bacteria” (Antimicrob Agents Chemother, 2009)
Values after ≈ are worked out from the molar mass of the structure shown. Active and inactive are the calls of the source. No cut-off for these calls is given here.

Tests used:
[1] = tested on: Enterococcus faecalis; test: Antibacterial activity against vancomycin- resistant Enterococcus faecalis by CLSI M100-S18 method; assay type: functional
[2] = tested on: Staphylococcus epidermidis; test: Antibacterial activity against non-ciprofloxacin-susceptible and methicillin-susceptible Staphylococcus epidermidis by CLSI M100-S18 method; assay type: functional
[3] = tested on: Staphylococcus lugdunensis; test: Antibacterial activity against Staphylococcus lugdunensis by CLSI M100-S18 method; assay type: functional
[4] = tested on: Staphylococcus saprophyticus; test: Antibacterial activity against Staphylococcus saprophyticus by CLSI M100-S18 method; assay type: functional
[5] = Antibacterial activity against Lancefield Streptococcus sp. 'group C' by CLSI M100-S18 method; assay type: functional
[6] = tested on: Streptococcus pneumoniae; test: Antibacterial activity against levofloxacin-susceptible Streptococcus pneumoniae by CLSI M100-S18 method; assay type: functional
[7] = tested on: Streptococcus pyogenes; test: Antibacterial activity against Streptococcus pyogenes by CLSI M100-S18 method; assay type: functional
[8] = tested on: Streptococcus anginosus; test: Antibacterial activity against Streptococcus anginosus by CLSI M100-S18 method; assay type: functional
[9] = tested on: Streptococcus mitis; test: Antibacterial activity against Streptococcus mitis by CLSI M100-S18 method; assay type: functional
[10] = tested on: Streptococcus oralis; test: Antibacterial activity against Streptococcus oralis by CLSI M100-S18 method; assay type: functional
[11] = tested on: Acinetobacter baumannii; test: Antibacterial activity against Acinetobacter baumannii by CLSI M7-A7 method; assay type: functional
[12] = tested on: Citrobacter freundii; test: Antibacterial activity against Citrobacter freundii by CLSI M7-A7 method; assay type: functional
[13] = tested on: Klebsiella aerogenes; test: Antibacterial activity against Enterobacter aerogenes by CLSI M7-A7 method; assay type: functional
[14] = tested on: Enterobacter cloacae; test: Antibacterial activity against Enterobacter cloacae by CLSI M7-A7 method; assay type: functional
[15] = tested on: Legionella pneumophila; test: Antibacterial activity against Legionella pneumophila by CLSI M7-A7 method; assay type: functional
[16] = tested on: Neisseria meningitidis; test: Antibacterial activity against Neisseria meningitidis by CLSI M7-A7 method; assay type: functional
[17] = tested on: Staphylococcus aureus; test: Antibacterial activity against non-ciprofloxacin-susceptible and methicillin-susceptible Staphylococcus aureus assessed as percent susceptible isolates by CLSI M100-S18 method; assay type: functional
[18] = tested on: Staphylococcus epidermidis; test: Antibacterial activity against ciprofloxacin-susceptible and methicillin-resistant Staphylococcus epidermidis assessed as percent susceptible isolates by CLSI M100-S18 method; assay type: functional
[19] = tested on: Staphylococcus warneri; test: Antibacterial activity against Staphylococcus warneri assessed as percent susceptible isolates by CLSI M100-S18 method; assay type: functional
[20] = tested on: Streptococcus pneumoniae; test: Antibacterial activity against levofloxacin susceptible Streptococcus pneumoniae assessed as percent susceptible isolates by CLSI M100-S18 method; assay type: functional
[21] = tested on: Acinetobacter baumannii; test: Antibacterial activity against Acinetobacter baumannii assessed as percent susceptible isolates by CLSI M7-A7 method; assay type: functional
[22] = tested on: Acinetobacter calcoaceticus; test: Antibacterial activity against Acinetobacter calcoaceticus assessed as percent susceptible isolates by CLSI M7-A7 method; assay type: functional
[23] = tested on: Acinetobacter lwoffii; test: Antibacterial activity against Acinetobacter lwoffii assessed as percent susceptible isolates by CLSI M7-A7 method; assay type: functional
[24] = tested on: Klebsiella aerogenes; test: Antibacterial activity against Enterobacter aerogenes assessed as percent susceptible isolates by CLSI M7-A7 method; assay type: functional
[25] = tested on: Haemophilus influenzae; test: Antibacterial activity against ciprofloxacin-susceptible Haemophilus influenzae assessed as percent susceptible isolates by CLSI M7-A7 method; assay type: functional
[26] = tested on: Moraxella catarrhalis; test: Antibacterial activity against Moraxella catarrhalis assessed as percent susceptible isolates by CLSI M7-A7 method; assay type: functional
[27] = tested on: Proteus mirabilis; test: Antibacterial activity against Proteus mirabilis assessed as percent susceptible isolates by CLSI M7-A7 method; assay type: functional
[28] = tested on: Proteus vulgaris; test: Antibacterial activity against Proteus vulgaris assessed as percent susceptible isolates by CLSI M7-A7 method; assay type: functional
[29] = tested on: Pseudomonas aeruginosa; test: Antibacterial activity against ciprofloxacin-susceptible Pseudomonas aeruginosa assessed as percent susceptible isolates by CLSI M7-A7 method; assay type: functional
[30] = tested on: Pseudomonas aeruginosa; test: Antibacterial activity against non-ciprofloxacin-susceptible Pseudomonas aeruginosa assessed as percent susceptible isolates by CLSI M7-A7 method; assay type: functional
[31] = tested on: Stenotrophomonas maltophilia; test: Antibacterial activity against non-levofloxacin susceptible Stenotrophomonas maltophilia assessed as percent susceptible isolates by CLSI M7-A7 method; assay type: functional
[32] = tested on: Stenotrophomonas maltophilia; test: Antibacterial activity against levofloxacin-susceptible Stenotrophomonas maltophilia assessed as assessed as percent susceptible isolates by CLSI M7-A7 method; assay type: functional
[33] = Drug concentration in human tears at 0.6% administered topically as single dose measured after 24 hrs; assay type: ADME; conditions: topical or ocular, read-out: Drug uptake
[34] = tested on: Bacteroides fragilis; test: Antibacterial activity against Bacteroides fragilis by CLSI M11-A7 method; assay type: functional
[35] = tested on: Peptostreptococcus sp.; test: Antibacterial activity against Peptostreptococcus sp. by CLSI M11-A7 method; assay type: functional
[36] = tested on: Prevotella sp.; test: Antibacterial activity against Prevotella sp. by CLSI M11-A7 method; assay type: functional
[37] = tested on: Cutibacterium acnes; test: Antibacterial activity against Propionibacterium acnes by CLSI M11-A7 method; assay type: functional
[38] = tested on: Peptostreptococcus sp.; test: Antibacterial activity against Peptostreptococcus sp. assessed as percent susceptible isolates by CLSI M11-A7 method; assay type: functional
[39] = tested on: Streptococcus anginosus; test: Antibacterial activity against Streptococcus anginosus assessed as percent susceptible isolates by CLSI M100-S18 method; assay type: functional
[40] = tested on: Streptococcus equinus; test: Antibacterial activity against Streptococcus bovis assessed as percent susceptible isolates by CLSI M100-S18 method; assay type: functional
[41] = tested on: Streptococcus constellatus; test: Antibacterial activity against Streptococcus constellatus assessed as percent susceptible isolates by CLSI M100-S18 method; assay type: functional
[42] = tested on: Streptococcus intermedius; test: Antibacterial activity against Streptococcus intermedius assessed as percent susceptible isolates by CLSI M100-S18 method; assay type: functional
[43] = tested on: Streptococcus mitis; test: Antibacterial activity against Streptococcus mitis assessed as percent susceptible isolates by CLSI M100-S18 method; assay type: functional
[44] = tested on: Streptococcus oralis; test: Antibacterial activity against Streptococcus oralis assessed as percent susceptible isolates by CLSI M100-S18 method; assay type: functional
[45] = tested on: Streptococcus salivarius; test: Antibacterial activity against Streptococcus salivarius assessed as percent susceptible isolates by CLSI M100-S18 method; assay type: functional
[46] = tested on: Streptococcus sanguinis; test: Antibacterial activity against Streptococcus sanguinis assessed as percent susceptible isolates by CLSI M100-S18 method; assay type: functional
[47] = tested on: Clostridium perfringens

C[C@H]1COc2c(N3CCN(C)CC3)c(F)cc3c(=O)c(C(=O)O)cn1c23.C[C@H]1COc2c(N3CCN(C)CC3)c(F)cc3c(=O)c(C(=O)O)cn1c23.O [LEVOFLOXACIN]
MIC50 [1]: 1 µg/mL
MIC90 [1]: 64 µg/mL
MIC50 [2]: 8 µg/mL
MIC50 [3]: 0.25 µg/mL
MIC90 [3]: > 8 µg/mL
MIC50 [4]: 0.25 µg/mL
MIC90 [4]: 0.5 µg/mL
MIC50 [5]: 0.5 µg/mL
MIC90 [5]: 0.5 µg/mL
MIC50 [6]: 0.5 µg/mL
MIC90 [6]: 0.5 µg/mL
MIC50 [7]: 0.5 µg/mL
MIC90 [7]: 0.5 µg/mL
MIC50 [8]: 1 µg/mL
MIC90 [8]: 1 µg/mL
MIC50 [9]: 1 µg/mL
MIC90 [9]: 4 µg/mL
MIC50 [10]: 1 µg/mL
MIC90 [10]: 4 µg/mL
MIC50 [11]: 8 µg/mL
MIC90 [11]: 64 µg/mL
MIC50 [12]: 0.06 µg/mL
MIC90 [12]: 2 µg/mL
MIC50 [13]: 0.06 µg/mL
MIC90 [13]: 16 µg/mL
MIC50 [14]: 0.03 µg/mL
MIC90 [14]: 0.25 µg/mL
MIC50 [15]: 0.03 µg/mL
MIC90 [15]: 0.03 µg/mL
MIC50 [16]: 0.008 µg/mL
MIC90 [16]: 0.015 µg/mL
Activity [17]: 0%
Activity [18]: 100%
Activity [19]: 74%
Activity [20]: 100%
Activity [21]: 37.7%
Activity [22]: 66.7%
Activity [23]: 86%
Activity [24]: 80%
Activity [25]: 100%
Activity [26]: 100%
Activity [27]: 76%
Activity [28]: 100%
Activity [29]: 96.2%
Activity [30]: 1%
Activity [31]: 100%
Activity [32]: 0%

N[C@@H]1CCCCN(c2c(F)cc3c(=O)c(C(=O)O)cn(C4CC4)c3c2Cl)C1 [BESIFLOXACIN]
concentration at 24 h [33]: 1600 ng/mL
MIC50 [1]: 0.12 µg/mL (≈ 0.305 µM)
MIC90 [1]: 2 µg/mL (≈ 5.08 µM)
MIC [2]: 0.25 µg/mL (≈ 0.635 µM)
MIC50 [2]: 0.25 µg/mL (≈ 0.635 µM)
MIC50 [3]: 0.06 µg/mL (≈ 0.152 µM)
MIC90 [3]: 0.5 µg/mL (≈ 1.27 µM)
MIC50 [4]: 0.06 µg/mL (≈ 0.152 µM)
MIC90 [4]: 0.12 µg/mL (≈ 0.305 µM)
MIC50 [5]: 0.03 µg/mL (≈ 0.0762 µM)
MIC90 [5]: 0.06 µg/mL (≈ 0.152 µM)
MIC50 [6]: 0.03 µg/mL (≈ 0.0762 µM)
MIC90 [6]: 0.06 µg/mL (≈ 0.152 µM)
MIC [7]: 0.03 µg/mL (≈ 0.0762 µM)
MIC50 [7]: 0.03 µg/mL (≈ 0.0762 µM)
MIC90 [7]: 0.06 µg/mL (≈ 0.152 µM)
MIC50 [8]: 0.06 µg/mL (≈ 0.152 µM)
MIC90 [8]: 0.12 µg/mL (≈ 0.305 µM)
MIC50 [9]: 0.06 µg/mL (≈ 0.152 µM)
MIC90 [9]: 0.12 µg/mL (≈ 0.305 µM)
MIC50 [10]: 0.06 µg/mL (≈ 0.152 µM)
MIC90 [10]: 0.12 µg/mL (≈ 0.305 µM)
MIC50 [11]: 16 µg/mL (≈ 40.6 µM)
MIC90 [11]: 32 µg/mL (≈ 81.3 µM)
MIC50 [12]: 0.25 µg/mL (≈ 0.635 µM)
MIC90 [12]: 4 µg/mL (≈ 10.2 µM)
MIC50 [13]: 0.25 µg/mL (≈ 0.635 µM)
MIC90 [13]: 8 µg/mL (≈ 20.3 µM)
MIC50 [14]: 0.12 µg/mL (≈ 0.305 µM)
MIC90 [14]: 2 µg/mL (≈ 5.08 µM)
MIC50 [15]: 0.03 µg/mL (≈ 0.0762 µM)
MIC90 [15]: 0.03 µg/mL (≈ 0.0762 µM)
MIC50 [16]: 0.008 µg/mL (≈ 0.0203 µM)
MIC90 [16]: 0.015 µg/mL (≈ 0.0381 µM)
MIC50 [34]: 0.5 µg/mL (≈ 1.27 µM)
MIC90 [34]: 1 µg/mL (≈ 2.54 µM)
MIC50 [35]: 0.25 µg/mL (≈ 0.635 µM)
MIC90 [35]: 0.5 µg/mL (≈ 1.27 µM)
MIC50 [36]: 1 µg/mL (≈ 2.54 µM)
MIC90 [36]: 4 µg/mL (≈ 10.2 µM)
MIC50 [37]: 0.25 µg/mL (≈ 0.635 µM)
MIC90 [37]: 0.25 µg/mL (≈ 0.635 µM)
Activity [38]: inactive
Activity [17]: inactive
Activity [18]: inactive
Activity [19]: inactive
Activity [20]: inactive
Activity [39]: 0.06%
Activity [40]: 0.06%
Activity [41]: 0.06%
Activity [42]: 0.06%
Activity [43]: 0.06%
Activity [44]: 0.06%
Activity [45]: 0.06%
Activity [46]: 0.06%
Activity [24]: inactive
Activity [25]: inactive
Activity [27]: inactive
Activity [28]: inactive
Activity [47]: inactive
